Measured values published in patent US3985779A, “M-phenoxyphenyl propionic acid derivatives and preparation thereof” (Eisai Co., Ltd., priority 1973, dated 1976).

Test system: Dextran-induced edema
Assay: Inhibitory activity on dextran-induced edema in rats (Experiment C)
Assay type: in vivo
Method: Inhibitory activity on dextran-induced edema in rats Experiment was carried out in the manner same as those of the preceding Experiments in which dextran was employed as irritant substance.

CC(C(=O)O)c1cccc(Oc2ccccc2Cl)c1 (centres unmarked) [Compound (5), 2-[m-(o-chlorophenoxy)phenyl]propionic acid]
% of Inhibition (after 2 hrs, oral 8 mg/kg): 1%
Edema D. ± S.E. (after 2 hrs, oral 8 mg/kg): .830 ± .052
% of Inhibition (after 2 hrs, oral 40 mg/kg): 11%
Edema D. ± S.E. (after 2 hrs, oral 40 mg/kg): .742 ± .037
% of Inhibition (after 3 hrs, oral 8 mg/kg): 1%
Edema D. ± S.E. (after 3 hrs, oral 8 mg/kg): .746 ± .026
% of Inhibition (after 3 hrs, oral 40 mg/kg): 8%
Edema D. ± S.E. (after 3 hrs, oral 40 mg/kg): .689 ± .035
